PubChem BioAssay (NCI)
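Assay format: 96-well plates, 48-hour exposure. Definition used: TGI = concentration required for complete inhibition of growth.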

Experiments:
Experiment in all cases: inhibition of tumour cell growth, NCI panel, 48 h
UO-31 renal = tested on: UO-31 renal
DMS 273 small cell lung = tested on: DMS 273 small cell lung
COLO 205 colon = tested on: COLO 205 colon
KM12 colon = tested on: KM12 colon
MOLT-4 leukemia = tested on: MOLT-4 leukemia
HCC-2998 colon = tested on: HCC-2998 colon
SN12C renal = tested on: SN12C renal
HOP-92 NSCLC = tested on: HOP-92 NSCLC
UACC-257 melanoma = tested on: UACC-257 melanoma
SK-MEL-28 melanoma = tested on: SK-MEL-28 melanoma
M19-MEL melanoma = tested on: M19-MEL melanoma
A498 renal = tested on: A498 renal
SF-295 CNS = tested on: SF-295 CNS
SK-OV-3 ovarian = tested on: SK-OV-3 ovarian
HL-60(TB) leukemia = tested on: HL-60(TB) leukemia
CAKI-1 renal = tested on: CAKI-1 renal
NCI-H522 lung = tested on: NCI-H522 lung
786-0 renal = tested on: 786-0 renal
OVCAR-8 ovarian = tested on: OVCAR-8 ovarian
SF-539 CNS = tested on: SF-539 CNS
OVCAR-5 ovarian = tested on: OVCAR-5 ovarian
A549 NSCLC = tested on: A549 NSCLC
SNB-19 CNS = tested on: SNB-19 CNS
DMS 114 small cell lung = tested on: DMS 114 small cell lung
K-562 leukemia = tested on: K-562 leukemia
DLD-1 colon = tested on: DLD-1 colon
SK-MEL-5 melanoma = tested on: SK-MEL-5 melanoma
RXF 393 renal = tested on: RXF 393 renal
OVCAR-3 ovarian = tested on: OVCAR-3 ovarian
SNB-78 CNS = tested on: SNB-78 CNS
HT29 colon = tested on: HT29 colon
OVCAR-4 ovarian = tested on: OVCAR-4 ovarian
TK-10 renal = tested on: TK-10 renal
NCI-H460 lung = tested on: NCI-H460 lung
M14 melanoma = tested on: M14 melanoma
UACC-62 melanoma = tested on: UACC-62 melanoma
RPMI-8226 leukemia = tested on: RPMI-8226 leukemia
U251 CNS = tested on: U251 CNS
ACHN renal = tested on: ACHN renal
SW-620 colon = tested on: SW-620 colon
HCT-15 colon = tested on: HCT-15 colon
MALME-3M melanoma = tested on: MALME-3M melanoma
KM20L2 colon = tested on: KM20L2 colon
IGROV1 ovarian = tested on: IGROV1 ovarian
EKVX NSCLC = tested on: EKVX NSCLC
LOX IMVI melanoma = tested on: LOX IMVI melanoma
SF-268 CNS = tested on: SF-268 CNS
HOP-62 NSCLC = tested on: HOP-62 NSCLC
CCRF-CEM leukemia = tested on: CCRF-CEM leukemia
SNB-75 CNS = tested on: SNB-75 CNS
NCI-H226 lung = tested on: NCI-H226 lung
SK-MEL-2 melanoma = tested on: SK-MEL-2 melanoma
NCI-H23 lung = tested on: NCI-H23 lung

Cc1ccc(S(=O)(=O)N(/N=C/C=C/c2ccccc2)c2nnc(-c3ccccc3)c(-c3ccccc3)n2)cc1
TGI (UO-31 renal): 23.4 µM
TGI (DMS 273 small cell lung): 66.9 µM
TGI (COLO 205 colon): 36.1 µM
TGI (KM12 colon): > 100 µM
TGI (MOLT-4 leukemia): 76.5 µM
TGI (HCC-2998 colon): 29.5 µM
TGI (SN12C renal): > 100 µM
TGI (HOP-92 NSCLC): 47.4 µM
TGI (UACC-257 melanoma): 98.7 µM
TGI (SK-MEL-28 melanoma): 78.4 µM
TGI (M19-MEL melanoma): 78.3 µM
TGI (A498 renal): > 100 µM
TGI (SF-295 CNS): 64.3 µM
TGI (SK-OV-3 ovarian): 75.1 µM
TGI (HL-60(TB) leukemia): 50.4 µM
TGI (CAKI-1 renal): 57 µM
TGI (NCI-H522 lung): 51.9 µM
TGI (786-0 renal): 74.3 µM
TGI (OVCAR-8 ovarian): > 100 µM
TGI (SF-539 CNS): 33 µM
TGI (OVCAR-5 ovarian): > 100 µM
TGI (A549 NSCLC): 94.4 µM
TGI (SNB-19 CNS): > 100 µM
TGI (DMS 114 small cell lung): 54.1 µM
TGI (K-562 leukemia): 80 µM
TGI (DLD-1 colon): > 100 µM
TGI (SK-MEL-5 melanoma): 35.1 µM
TGI (RXF 393 renal): 60.7 µM
TGI (OVCAR-3 ovarian): 88.6 µM
TGI (SNB-78 CNS): > 100 µM
TGI (HT29 colon): 23 µM
TGI (OVCAR-4 ovarian): > 100 µM
TGI (TK-10 renal): 76.9 µM
TGI (NCI-H460 lung): > 100 µM
TGI (M14 melanoma): 49.4 µM
TGI (UACC-62 melanoma): > 100 µM
TGI (RPMI-8226 leukemia): 40.3 µM
TGI (U251 CNS): > 100 µM
TGI (ACHN renal): > 100 µM
TGI (SW-620 colon): > 100 µM
TGI (HCT-15 colon): > 100 µM
TGI (MALME-3M melanoma): > 100 µM
TGI (KM20L2 colon): 40.5 µM
TGI (IGROV1 ovarian): > 100 µM
TGI (EKVX NSCLC): > 100 µM
TGI (LOX IMVI melanoma): 51.3 µM
TGI (SF-268 CNS): 96.9 µM
TGI (HOP-62 NSCLC): 48.9 µM
TGI (CCRF-CEM leukemia): > 100 µM
TGI (SNB-75 CNS): 69 µM
TGI (NCI-H226 lung): 55.6 µM
TGI (SK-MEL-2 melanoma): 47.8 µM
TGI (NCI-H23 lung): 66.8 µM
